Measurements taken from US20150273088A1 (Board of Regents, The University of Texas System, priority 2014, published 2015).

Assays:
[1] = test system: HT1080 cells (endogenous IDH1 R132C); assay: 2HG fluorimetric assay / high-throughput screen, secreted 2HG in media; type: cell-based, human; settings: for Secreted (extracellular) 2HG: HT1080 cells, 48 hours, fluorescent assay, normalized to viability
Description: 2HG fluorimetric assay. N-terminal 6×-His tagged PHGDH was expressed and purified from chemically competent BL-21 E. coli using Ni-NTA agarose (Qiagen) (Grant et al., 1999). Purified protein was then dialyzed in 40 mM KPO4 buffer at 4° C. overnight. Conditioned culture media (DMEM or aMEM) containing 2HG was neutralized with 60 mM HCL for 10 minutes followed by 60 mM Tris base. A 20 μL aliquot of neutralized conditioned media was then mixed with 90 μL of optimized assay reaction mix consisting of 5 μg purified PHGDH enzyme, 12.5 μM resazurin (Sigma-Aldrich), 0.125 U/ml diaphorase (Sigma-Aldrich), 1 mM NAD (Sigma-Aldrich), 40 mM Tris-HCl pH 8.8, and incubated for 90 minutes in a 96-well plate. Resorufin fluorescence was then quantified using a FLUOstar™ OPTIMA fluorescence plate reader (BMG Labtech) with excitation and emission peaks of 544 nm and 590 nm, respectively. Measurements were background subtracted (neutralized fresh media) and normalized either to total protein or viability as measured by Alamar Blue (Naik et al., 2009).
High-throughput screening. Screening was carried out using the Beckman Coulter (Fullerton, Calif.) Core Robotics system, including an FX liquid handler, controlled by the Sagian graphical method development tool (SAMI scheduling software). The Institute of Chemistry and Cell Biology (ICCB) Known Bioactives Library (Enzo Lifescience, BML-2840-0100) was diluted 1:200 in αMEM and 50 μL were added to pre-plated HT1080 cells. After 48 hours of incubation, media was removed and 2HG in the media was measured using the fluorimetric assay. Fresh 2HG fluorimetric assay reaction mix was prepared immediately before assaying each screen plate to limit background modulation. Cell viability was determined using Alamar Blue, as described previously (Naik et al., 2009).
To identify screen hits and account for differences in compound toxicity, 2HG fluorescence was first median-centered around DMSO treatment controls within each screen plate. 2HG fluorescence was then plotted against viability such that a correlation between the two measurements could be visualized. A linear fit and 95% predictive interval (P.I.) were then determined and plotted using GraphPad Prism (GraphPad Software).

[2] = test system: D54 glioblastoma cells expressing IDH1 R132H; settings: cited from earlier work
HT1080 cells = assay: GC-MS quantification of 2HG and upstream metabolites in HT1080 cells; type: cell-based, human; settings: HT1080, 300 μM Zaprinast or 10 μM BPTES
Description: GC-MS analysis. Metabolite extraction from cultured cells was performed as described previously by Figueroa et al. (2010). Briefly, cells were rinsed in ice cold PBS and rapidly quenched with 80% methanol spiked with 3-hydroxy-1,5-pentanedioic-2,2,3,4,4-d5 acid (CDN Isotopes, Quebec Canada) as an internal standard. Extracts were then incubated at −80° C. for 20 minutes, sonicated on ice, centrifuged at 14,000×g for 20 minutes at 4° C. to clear precipitate proteins, and supernatants transferred to vials for drying under N2. Derivatizing reagent (MSTFA (N-methyl-N-(trimethylsilyl)trifluoroacetamide):pyridine:acetonitrile 1:1:2) was added to the vials, which were then heated at 70° C. for 15 minutes.
Derivatized samples were analyzed on an Agilent 7890A gas chromatograph interfaced to an Agilent 5975C mass spectrometer. The GC column used for the study was a HP-5MS (30 m, 0.25 mm i.d., 0.25 μm film coating). A linear temperature gradient was used. The initial temperature of 80° C. was held for 2 minute and increased to 300° C. at 10° C./minute. The temperature was held at 300° C. for 2 minutes. The samples were run by electron ionization (EI) and the source temperature, electron energy, and emission current were 200° C., 70 eV, and 300 μA, respectively. The injector and transfer line temperatures were 250° C. 3-Hydroxy-1,5-pentanedioic-2,2,3,4,4-d5 acid was used as the internal standard in SIM mode for quantitation of 2-hydroxyglutaric acid. Quantitation was carried out by monitoring the ions at m/z 347 (glutamine and αKG), 348 (glutamate), 349 (2-hydroxyglutaric acid), and 354 (3-hydroxy-1,5-pentanedioic-2,2,3,4,4-d5).

[3] = target: T1, purified, full length, human GLS1 (Homo sapiens, UniProt O94925); assay: Glutaminase assay (two-step, purified enzyme); type: biochemical; settings: control experiment, 10 mM glutamine
T1 construct: 6xHis (N); made in house; host or cells: E. coli BL-21
T1 sequence (O94925 55-669): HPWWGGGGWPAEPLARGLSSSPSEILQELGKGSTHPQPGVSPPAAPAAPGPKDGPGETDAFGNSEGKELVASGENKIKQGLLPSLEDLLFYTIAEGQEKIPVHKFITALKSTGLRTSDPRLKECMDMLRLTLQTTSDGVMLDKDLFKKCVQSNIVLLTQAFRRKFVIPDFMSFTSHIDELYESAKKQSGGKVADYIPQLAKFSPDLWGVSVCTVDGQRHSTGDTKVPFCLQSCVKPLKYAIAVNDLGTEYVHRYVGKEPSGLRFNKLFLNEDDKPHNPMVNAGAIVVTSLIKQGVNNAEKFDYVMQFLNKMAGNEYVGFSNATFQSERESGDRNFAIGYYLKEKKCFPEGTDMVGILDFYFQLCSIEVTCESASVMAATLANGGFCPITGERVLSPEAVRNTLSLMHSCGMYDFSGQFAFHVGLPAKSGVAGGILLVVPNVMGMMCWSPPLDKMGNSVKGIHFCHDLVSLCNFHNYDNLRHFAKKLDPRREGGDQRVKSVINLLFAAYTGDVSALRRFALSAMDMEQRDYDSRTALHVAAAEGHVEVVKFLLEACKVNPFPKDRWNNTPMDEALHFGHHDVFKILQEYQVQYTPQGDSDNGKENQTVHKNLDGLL
Description: Glutaminase assay. N-terminal 6×-His tagged GLS1 was expressed and purified from chemically competent BL-21 E. coli using Ni-NTA agarose beads (Qiagen). Purified protein was then dialyzed in a 50 mM Tris-phosphate buffer containing 1 mM dithiothreitol at 4° C. overnight. A previously described two-step assay was used to measure glutaminase activity (Kenny et al., 2003). […] […] […] For the second step of the assay, 20 μL of completed and quenched initial reaction were transferred to a new plate and 200 μL of secondary reaction mix containing 0.4 mg bovine liver glutamate dehydrogenase (Sigma-Aldrich), 0.09 M Tris-acetate (pH 9.4), 0.2 M hydrazine, 0.25 mM ADP, and 2 mM NAD was added. Samples were incubated for 40 minutes at room temperature and absorbance of NADH (340 nm) was measured using a microplate spectrophotometer.

For Nc1nc2c(nc(Br)n2[C@@H]2O[C@@H]3COP(=O)(O)O[C@H]3[C@H]2O)c(=O)[nH]1 [8-bromo-cGMP], the “Secreted (extracellular) 2HG” value [1] was “did not cause a reduction”.
For O=C(Cc1ccccc1)Nc1nnc(CCSCCc2nnc(NC(=O)Cc3ccccc3)s2)s1 [BPTES], the “2HG levels in D54 cells” value [2] is listed as “unaffected”, the “Growth of D54 cells expressing IDH1 R132H compared to wild type IDH1” value [2] is listed as “preferentially limits growth” and the “Cellular 3-phosphoglycerate (3PG) level” value (HT1080 cells) is listed as “did not cause an elevation”.
In the case of COCc1cc(O)c(O)c(O)c1-c1c(COC)cc(O)c(O)c1O [HBDDE], the “Viability in high-throughput screen (Alamar Blue)” value ([1]; HT1080, 48 hours) is reported as “little effect on viability” and the “2HG in high-throughput screen” value ([1]; HT1080, 48 hours, screen hits top left quadrant) is reported as “reduced 2HG”.
For CCCc1nn(C)c2c(=O)[nH]c(-c3cc(S(=O)(=O)N4CCN(C)CC4)ccc3OCC)nc12 [Sildenafil], the “Secreted (extracellular) 2HG” value [1] was “no change”.
For Nc1nc2c(ncn2[C@@H]2O[C@@H]3COP(=O)(O)O[C@H]3[C@H]2O)c(=O)[nH]1 [cGMP], the “Effect on GLS1 enzymatic activity” value [3] was “no direct effect”.
